Drawing on publication PMC4488857 (PLoS ONE, 2015), this text covers inhibition, IC50 and Km for 3 compounds.

Assay [1] addresses T1, multidrug resistance-associated protein 2 (MRP2) (Homo sapiens, UniProt Q92887). The experiment in a line: inhibition of ATP-dependent platinum uptake (oxaliplatin […]) in MRP2-expressing membrane vesicles, ICPMS; […] reduction at […]. Set-up: gene ABCC2; human MRP2 in inside-out Sf9 membrane vesicles. Format: cell-based.
Assay [2] has as its target T1, multidrug resistance-associated protein 2 (MRP2). The experiment in a line: inhibition of ATP-dependent platinum uptake (oxaliplatin […]) in MRP2-expressing membrane vesicles, ICPMS. Set-up: gene ABCC2; human MRP2 in inside-out Sf9 membrane vesicles. In kind it is biochemical.
Assay [3] shares this target. Also noted: gene ABCC2.

T1 sequence (Q92887 whole entry): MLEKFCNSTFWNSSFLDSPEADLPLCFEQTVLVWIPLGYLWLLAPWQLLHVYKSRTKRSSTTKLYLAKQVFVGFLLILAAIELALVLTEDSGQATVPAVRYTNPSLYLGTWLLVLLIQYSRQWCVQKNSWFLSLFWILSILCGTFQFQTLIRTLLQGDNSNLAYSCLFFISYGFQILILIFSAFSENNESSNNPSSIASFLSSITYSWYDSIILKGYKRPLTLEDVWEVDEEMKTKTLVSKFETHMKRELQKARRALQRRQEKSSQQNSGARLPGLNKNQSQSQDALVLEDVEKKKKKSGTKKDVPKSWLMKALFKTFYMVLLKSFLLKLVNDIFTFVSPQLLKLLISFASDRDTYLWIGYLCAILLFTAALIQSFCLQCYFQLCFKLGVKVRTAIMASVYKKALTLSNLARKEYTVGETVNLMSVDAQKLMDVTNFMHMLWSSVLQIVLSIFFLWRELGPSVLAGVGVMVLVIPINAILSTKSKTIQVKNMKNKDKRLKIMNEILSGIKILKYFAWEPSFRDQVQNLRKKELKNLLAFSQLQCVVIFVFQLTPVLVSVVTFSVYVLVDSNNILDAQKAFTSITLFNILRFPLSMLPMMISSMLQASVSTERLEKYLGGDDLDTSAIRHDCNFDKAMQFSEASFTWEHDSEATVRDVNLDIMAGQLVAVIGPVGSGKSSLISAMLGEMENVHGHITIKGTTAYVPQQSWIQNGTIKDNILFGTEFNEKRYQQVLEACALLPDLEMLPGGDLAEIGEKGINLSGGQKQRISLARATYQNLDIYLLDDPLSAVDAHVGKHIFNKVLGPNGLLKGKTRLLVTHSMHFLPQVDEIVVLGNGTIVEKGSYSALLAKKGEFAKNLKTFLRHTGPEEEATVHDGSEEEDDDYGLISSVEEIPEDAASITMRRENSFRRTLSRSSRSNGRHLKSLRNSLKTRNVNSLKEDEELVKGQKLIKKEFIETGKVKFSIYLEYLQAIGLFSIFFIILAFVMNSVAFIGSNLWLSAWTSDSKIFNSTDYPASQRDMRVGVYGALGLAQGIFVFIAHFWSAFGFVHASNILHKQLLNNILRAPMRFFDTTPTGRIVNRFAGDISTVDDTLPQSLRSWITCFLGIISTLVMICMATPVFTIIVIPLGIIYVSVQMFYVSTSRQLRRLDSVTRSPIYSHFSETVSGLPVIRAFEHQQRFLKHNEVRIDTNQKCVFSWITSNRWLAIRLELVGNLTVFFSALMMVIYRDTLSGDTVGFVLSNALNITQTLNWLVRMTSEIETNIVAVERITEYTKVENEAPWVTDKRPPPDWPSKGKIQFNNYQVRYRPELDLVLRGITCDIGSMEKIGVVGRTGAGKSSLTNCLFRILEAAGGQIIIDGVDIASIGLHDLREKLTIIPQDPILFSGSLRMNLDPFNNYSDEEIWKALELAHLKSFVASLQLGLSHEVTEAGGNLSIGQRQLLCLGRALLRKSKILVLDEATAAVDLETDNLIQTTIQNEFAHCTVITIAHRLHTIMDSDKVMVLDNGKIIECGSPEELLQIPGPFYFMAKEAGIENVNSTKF

`CN(C)C(=O)CCSC(SCCC(=O)O)c1cccc(/C=C/c2ccc3ccc(Cl)cc3n2)c1` (stereo not drawn) [MK571] returned an inhibition at 100 µM in assay [1] of 96%.
With `O=c1c(O)c(-c2cc(O)c(O)c(O)c2)oc2cc(O)cc(O)c12` [myricetin], the IC50 in assay [2] fell in the range of 10 to 100 µM.
Regarding `O=C1[O][Pt]2([NH][C@@H]3CCCC[C@H]3[NH]2)[O]C1=O` [oxaliplatin], the Km in assay [3] worked out at 301 µM.
